Among the test systems are 786-0; HCC 2998; HCT-15; HT-29; Hs-578T; LOX IMVI; M14; MDA-MB-435; MOLT-4; NCI-H460; NCI-H522; OVCAR-4; OVCAR-8; SF-268; SF-295; SK-MEL-28; SK-MEL-2; TK-10.
What all share (assay): inhibition of tumour cell growth, NCI panel, 48 h

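Exposure lasted 48 hours, with cells grown in 96-well plates and compounds tested at five concentrations. Abbreviation: GI50, concentration required for 50% inhibition of growth.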 Activity calls are given as the source filed them. Rule as the data show it: active = GI50 up to about 1.1 µM and inactive = higher.

On to `O=C1C(C(O)(C(F)(F)F)C(F)(F)F)CCC1C(O)(C(F)(F)F)C(F)(F)F` (stereo unspecified), for which the GI50 with 786-0 is 3.87 µM (inactive); with HCC 2998, 0.323 µM (active); with HCT-15, 28.3 µM; in the assay on HT-29, 0.301 µM (active); with Hs-578T, 1.37 µM (inactive); in the assay with LOX IMVI, 0.594 µM (active). Moreover, the GI50 was 8.71 µM (inactive) in the assay with M14; 13.2 µM (inactive) in the assay with MDA-MB-435; 0.341 µM (active) in the assay with MOLT-4; 8.83 µM (inactive) in the assay with NCI-H460; 1.29 µM (inactive) in the assay on NCI-H522; 1.18 µM (inactive) in the assay on OVCAR-4. Moreover, the GI50 was 8.75 µM (inactive) with OVCAR-8; 5.7 µM (inactive) in the assay on SF-268; 0.849 µM (active) in the assay with SF-295; 3.16 µM (inactive) in the assay on SK-MEL-28; 0.522 µM (active) in the assay on SK-MEL-2; 42.1 µM (inactive) in the assay with TK-10.

Take `C/C(CC(=O)Nc1cccc(C)c1C)=N\NC(N)=S`: the GI50 in the assay on 786-0 is > 100 µM (inactive); with HCC 2998, > 100 µM (inactive); in the assay with HCT-15, 41.8 µM; with HT-29, > 100 µM (inactive); with LOX IMVI, > 100 µM (inactive); in the assay on M14, > 100 µM (inactive). The GI50 in the assay on MOLT-4, in the assay on NCI-H460, in the assay on NCI-H522, with OVCAR-4, in the assay on OVCAR-8 and in the assay on SF-268 was > 100 µM (inactive) throughout. Besides, the GI50 in the assay on SF-295, with SK-MEL-28, in the assay with SK-MEL-2 and in the assay on TK-10 was > 100 µM (inactive) throughout.

For the compound `Cc1cccc(C(C)(C)C)c1NC(=O)C(=O)Cc1nc2ccccc2s1`, the GI50 is > 100 µM (inactive) in the assay on 786-0; > 100 µM (inactive) in the assay on HCC 2998; over 100 µM in the assay with HCT-15; > 100 µM (inactive) in the assay with HT-29; > 100 µM (inactive) with LOX IMVI; > 100 µM (inactive) in the assay with M14. The GI50 with MOLT-4, in the assay with NCI-H460, in the assay on NCI-H522, with OVCAR-4, with OVCAR-8 and with SF-268 was > 100 µM (inactive) throughout. The GI50 with SF-295, in the assay with SK-MEL-28, in the assay on SK-MEL-2 and in the assay with TK-10 was > 100 µM (inactive) throughout.

Regarding `Cc1noc2cccc(O)c12`, the GI50 with 786-0 is > 100 µM (inactive); in the assay with HCC 2998, > 100 µM (inactive); with HCT-15, over 100 µM; with HT-29, > 100 µM (inactive); with LOX IMVI, > 100 µM (inactive); in the assay with M14 it was > 100 µM (inactive). Moreover, the GI50 in the assay with MOLT-4, in the assay on NCI-H460, with NCI-H522, with OVCAR-4, in the assay with OVCAR-8 and in the assay with SF-268 was > 100 µM (inactive) in each case. The GI50 with SF-295, in the assay on SK-MEL-28, in the assay on SK-MEL-2 and with TK-10 was > 100 µM (inactive) throughout.

With `S=P(c1ccccc1)(c1ccccc1)C1(C2(P(=S)(c3ccccc3)c3ccccc3)CC2)CC1`, the GI50 with 786-0 is > 100 µM (inactive); with HCC 2998, > 100 µM (inactive); in the assay with HCT-15, over 100 µM; in the assay on HT-29 it was > 100 µM (inactive); in the assay with LOX IMVI, > 100 µM (inactive); in the assay with M14, > 100 µM (inactive). Further, the GI50 with MOLT-4, in the assay on NCI-H460, in the assay with NCI-H522, with OVCAR-4, in the assay with OVCAR-8 and with SF-268 was > 100 µM (inactive) throughout. Besides, the GI50 in the assay with SF-295, in the assay with SK-MEL-28, in the assay with SK-MEL-2 and with TK-10 was > 100 µM (inactive) each time.

As to `C=C(c1ccccc1N)[C@@]1(O)C[C@H](/C(=C\C)CO)C[C@@H]1NCc1ccccc1`, the GI50 in the assay with 786-0 was 20.6 µM (inactive); with HCC 2998, 15.7 µM (inactive); with HCT-15, 29 µM; in the assay on HT-29, 17.5 µM (inactive); with LOX IMVI it was 17.1 µM (inactive); in the assay with M14 it was 15.2 µM (inactive). Moreover, the GI50 was 18.2 µM (inactive) in the assay with MOLT-4; 20.7 µM (inactive) with NCI-H460; 17.1 µM (inactive) with NCI-H522; 26.7 µM (inactive) with OVCAR-4; 24.5 µM (inactive) in the assay on OVCAR-8; 30.8 µM (inactive) with SF-268. The GI50 with SF-295 is 16.9 µM (inactive); with SK-MEL-28 it was 18.3 µM (inactive); in the assay on SK-MEL-2 it was 22.2 µM (inactive); in the assay on TK-10, 20.8 µM (inactive).

With `C#CCN(N=O)C(=O)NCCCCC(NC(=O)OCc1ccccc1)C(=O)OCc1ccccc1` (stereo unspecified), the GI50 with 786-0 is > 100 µM (inactive); in the assay on HCC 2998, > 100 µM (inactive); with HCT-15, 33.7 µM; in the assay with HT-29, 62.4 µM (inactive); in the assay with LOX IMVI, 14.5 µM (inactive); with M14, 27 µM (inactive). Moreover, the GI50 in the assay with MOLT-4 is 20.7 µM (inactive); with NCI-H460 it was 98.2 µM (inactive); with NCI-H522 it was 15.3 µM (inactive); in the assay on OVCAR-4 it was > 100 µM (inactive); in the assay on OVCAR-8 it was 38.9 µM (inactive); with SF-268, 27.6 µM (inactive). Besides, the GI50 in the assay on SF-295 is > 100 µM (inactive); with SK-MEL-28, 49.5 µM (inactive); with SK-MEL-2, 40 µM (inactive); in the assay with TK-10, > 100 µM (inactive).

Regarding `O=c1[nH]c(=O)n(COCc2ccccc2)c2ccc(Br)cc12`, the GI50 in the assay on 786-0 is > 100 µM (inactive); in the assay on HCT-15 it was 71.4 µM; with HT-29, > 100 µM (inactive); in the assay on LOX IMVI it was > 100 µM (inactive); with M14, > 100 µM (inactive); with MDA-MB-435, > 100 µM (inactive). For the same compound, the GI50 was > 100 µM (inactive) with MOLT-4; 89.5 µM (inactive) with NCI-H460; 60.8 µM (inactive) in the assay with OVCAR-4; 90.8 µM (inactive) with OVCAR-8; 87.7 µM (inactive) with SF-295; > 100 µM (inactive) in the assay on SK-MEL-28. For the same compound, the GI50 in the assay with SK-MEL-2 and with TK-10 was > 100 µM (inactive) throughout.

Take `O=C1CCCc2ccc([N+](=O)[O-])c(O)c21`: the GI50 in the assay with 786-0 is 89.9 µM (inactive); with HCC 2998 it was > 100 µM (inactive); in the assay on HCT-15, 72.9 µM; in the assay on HT-29, > 100 µM (inactive); in the assay with LOX IMVI, > 100 µM (inactive); in the assay with M14, > 100 µM (inactive). Moreover, the GI50 was > 100 µM (inactive) with MOLT-4; > 100 µM (inactive) in the assay on NCI-H460; 66.8 µM (inactive) with NCI-H522; > 100 µM (inactive) in the assay with OVCAR-4; > 100 µM (inactive) in the assay on OVCAR-8; 69.8 µM (inactive) with SF-268. Besides, the GI50 in the assay with SF-295 is > 100 µM (inactive); in the assay on SK-MEL-28 it was > 100 µM (inactive); in the assay with SK-MEL-2, 39 µM (inactive); in the assay with TK-10, 55.7 µM (inactive).

Regarding `COC(=O)c1cccc2cccc(C(=O)Nc3ccc(Cl)cc3)c12`, the GI50 in the assay with 786-0 is > 100 µM (inactive); in the assay on HCC 2998, 6.17 µM (inactive); with HCT-15, over 35.2 µM; in the assay with LOX IMVI it was 0.664 µM (active); in the assay with M14, 0.951 µM (active); in the assay on MOLT-4, 3.1 µM (inactive). The GI50 in the assay on NCI-H460 is 10.3 µM (inactive); with NCI-H522, 13.7 µM (inactive); with OVCAR-4 it was > 100 µM (inactive); in the assay with OVCAR-8 it was > 79.8 µM (inactive); with SF-268 it was > 68.7 µM (inactive); in the assay on SF-295, 1.72 µM (inactive). Besides, the results for the GI50 with SK-MEL-28, in the assay with SK-MEL-2 and in the assay with TK-10 were > 100 µM (inactive), 1.84 µM (inactive) and > 100 µM (inactive), respectively.

In the case of `NC1=C2C(Br)=CN([C@@H]3O[C@H](CO)[C@@H](O)[C@@H]3O)C2C(=O)N=N1` (stereo partly specified), the GI50 is 12.4 µM (inactive) in the assay on 786-0; 5.02 µM (inactive) in the assay on HCC 2998; 1.25 µM in the assay on HCT-15; 2.42 µM (inactive) in the assay on HT-29; 1.03 µM (active) in the assay on LOX IMVI; 1.27 µM (inactive) in the assay on M14. Moreover, the GI50 was 0.395 µM (active) in the assay on MOLT-4; 1.49 µM (inactive) with NCI-H460; 6.05 µM (inactive) in the assay with NCI-H522; 2.44 µM (inactive) with OVCAR-4; 0.577 µM (active) with OVCAR-8; 9.51 µM (inactive) with SF-268. The GI50 with SF-295 is 15.8 µM (inactive); in the assay with SK-MEL-28, 7.73 µM (inactive); in the assay with SK-MEL-2, 14.8 µM (inactive); with TK-10 it was 15.4 µM (inactive).

Consider `COc1ccc(C=O)c(N(C)C(=O)C(C)(C)C)c1`, for which the GI50 in the assay on 786-0 is > 100 µM (inactive); in the assay with HCC 2998, > 100 µM (inactive); with HCT-15, over 100 µM; in the assay with HT-29, > 100 µM (inactive); with LOX IMVI it was > 100 µM (inactive); with M14, > 100 µM (inactive). The GI50 with MOLT-4, in the assay with NCI-H460, in the assay with NCI-H522, in the assay on OVCAR-4, with OVCAR-8 and in the assay with SF-268 was > 100 µM (inactive) each time. For the same compound, the GI50 in the assay with SF-295, with SK-MEL-28, in the assay on SK-MEL-2 and in the assay with TK-10 was > 100 µM (inactive) each time.

(Values after ChEMBL document CHEMBL1201862, “PubChem BioAssay data set” (2004).)
